Test: venous thrombosis (venous stasis under hypercoagulation with activated factor X, Wessler technique)
Assay type: in vivo, male Wistar rats
Details: po, administered orally, rat, thrombosis induced 4 hours after treatment, thrombus weighed
Method: The study is performed on unfasted male Wistar rats weighing 250 to 280 g, divided up into groups of 10 animals each. The test products are administered orally as a suspension in PEG 400. A thrombosis is induced 4 hours after this treatment and the thrombus formed is removed and weighed.

Question: For Cc1cc(=O)c2cc(O[C@@H]3SC[C@@H](O)[C@H](O)[C@H]3O)ccc2o1 [Example 24, 2-methyl-4-oxo-4H-1-benzopyran-6-yl 5-thio-β-D-xylopyranoside], which inhibition in vivo at 3 mg/kg is on record?
Answer: Its inhibition in vivo at 3 mg/kg is 36%.

Question: Which inhibition in vivo at 3 mg/kg does the source give for Cc1cc(=O)oc2cccc(O[C@@H]3SC[C@@H](O)[C@H](O)[C@H]3O)c12 [Example 6, 4-methyl-2-oxo-2H-1-benzopyran-5-yl 5-thio-β-D-xylopyranoside] here?
Answer: Its inhibition in vivo at 3 mg/kg is 42%.

Question: With CC(=O)O[C@@H]1[C@@H](OC(C)=O)[C@H](OC(C)=O)CS[C@H]1Oc1ccc2c(C)c(Cl)c(=O)oc2c1 [Example 17a, 3-chloro-4-methyl-2-oxo-2H-1-benzopyran-7-yl 2,3,4-tri-O-acetyl-5-thio-β-D-xylopyranoside] as the compound, how does the inhibition in vivo at 3 mg/kg read?
Answer: The inhibition in vivo at 3 mg/kg was 67%.

Question: With Cc1cc(=O)oc2cc(O[C@@H]3SC[C@@H](O)[C@H](O)[C@H]3O)ccc12 [Example 16, 4-methyl-2-oxo-2H-1-benzopyran-7-yl 5-thio-β-D-xylopyranoside] as the compound, how does the inhibition in vivo at 3 mg/kg read?
Answer: Its inhibition in vivo at 3 mg/kg is 63%.

Question: For Cc1c(-c2ccccc2)c(=O)oc2cc(O[C@@H]3SC[C@@H](O)[C@H](O)[C@H]3O)ccc12 [Example 18, 4-methyl-2-oxo-3-phenyl-2H-1-benzopyran-7-yl 5-thio-β-D-xylopyranoside], which inhibition in vivo at 3 mg/kg is on record?
Answer: The inhibition in vivo at 3 mg/kg was 43%.

Question: Which inhibition in vivo at 3 mg/kg does the source give for CC(=O)O[C@@H]1[C@@H](OC(C)=O)[C@H](Sc2ccc3c4c(c(=O)oc3c2)CCCC4)SC[C@H]1OC(C)=O [Example 15a, 7,8,9,10-tetrahydro-6-oxo-6H-dibenzo[b,d]pyran-3-yl 2,3,4-tri-O-acetyl-1,5-dithio-β-D-xylopyranoside] here?
Answer: The inhibition in vivo at 3 mg/kg was 23%.

Question: With CC(=O)O[C@@H]1[C@@H](OC(C)=O)[C@H](OC(C)=O)CS[C@H]1Oc1ccc2c(=O)c(C)c(C)oc2c1 [Example 22a, 2,3-dimethyl-4-oxo-4H-1-benzopyran-7-yl 2,3,4-tri-O-acetyl-5-thio-β-D-xylopyranoside] as the compound, how does the inhibition in vivo at 3 mg/kg read?
Answer: Its inhibition in vivo at 3 mg/kg is 66%.

Question: With Cc1oc2cc(S[C@@H]3SC[C@@H](O)[C@H](O)[C@H]3O)ccc2c(=O)c1C [Example 26, 2,3-dimethyl-4-oxo-4H-1-benzopyran-7-yl 1,5-dithio-β-D-xylopyranoside] as the compound, how does the inhibition in vivo at 3 mg/kg read?
Answer: Its inhibition in vivo at 3 mg/kg is 27%.

Question: For CCCc1cc(=O)oc2cc(S[C@@H]3SC[C@@H](OC(C)=O)[C@H](OC(C)=O)[C@H]3OC(C)=O)ccc12 [Example 14a, 2-oxo-4-propyl-2H-1-benzopyran-7-yl 2,3,4-tri-O-acetyl-1,5-dithio-β-D-xylopyranoside], which inhibition in vivo at 3 mg/kg is on record?
Answer: Its inhibition in vivo at 3 mg/kg is 25%.

Question: Which inhibition in vivo at 3 mg/kg does the source give for Cc1c(Cl)c(=O)oc2cc(S[C@@H]3SC[C@@H](O)[C@H](O)[C@H]3O)ccc12 [Example 12, 3-chloro-4-methyl-2-oxo-2H-1-benzopyran-7-yl 1,5-dithio-β-D-xylopyranoside] here?
Answer: The inhibition in vivo at 3 mg/kg was 65%.

Question: Which inhibition in vivo at 3 mg/kg does the source give for CC(=O)O[C@@H]1[C@@H](OC(C)=O)[C@H](Sc2ccc3c(C)cc(=O)oc3c2)SC[C@H]1OC(C)=O [Example 8a, 4-methyl-2-oxo-2H-1-benzopyran-7-yl 2,3,4-tri-O-acetyl-1,5-dithio-β-D-xylopyranoside] here?
Answer: The inhibition in vivo at 3 mg/kg was 65%.

Question: With O=c1oc2cc(S[C@@H]3SC[C@@H](O)[C@H](O)[C@H]3O)ccc2c2c1CCCC2 [Example 15, 7,8,9,10-tetrahydro-6-oxo-6H-dibenzo[b,d]pyran-3-yl 1,5-dithio-β-D-xylopyranoside] as the compound, how does the inhibition in vivo at 3 mg/kg read?
Answer: Its inhibition in vivo at 3 mg/kg is 31%.

Question: For CC(=O)O[C@@H]1[C@@H](OC(C)=O)[C@H](OC(C)=O)CS[C@H]1Oc1ccc2c(C(F)(F)F)cc(=O)oc2c1 [Example 3a, 4-trifluoromethyl-2-oxo-2H-1-benzopyran-7-yl 2,3,4-tri-O-acetyl-5-thio-β-D-xylopyranoside], which inhibition in vivo at 3 mg/kg is on record?
Answer: The inhibition in vivo at 3 mg/kg was 47%.

Question: Which inhibition in vivo at 3 mg/kg does the source give for CCc1cc(=O)oc2cc(S[C@@H]3SC[C@@H](O)[C@H](O)[C@H]3O)ccc12 [Example 13, 4-ethyl-2-oxo-2H-1-benzopyran-7-yl 1,5-dithio-β-D-xylopyranoside] here?
Answer: The inhibition in vivo at 3 mg/kg was 54%.

Question: Which inhibition in vivo at 3 mg/kg does the source give for CCc1cc(=O)oc2cc(O[C@@H]3SC[C@@H](O)[C@H](O)[C@H]3O)ccc12 [Example 1, 4-ethyl-2-oxo-2H-1-benzopyran-7-yl 5-thio-β-D-xylopyranoside] here?
Answer: The inhibition in vivo at 3 mg/kg was 87%.

Question: Which inhibition in vivo at 3 mg/kg does the source give for CC(=O)O[C@@H]1[C@@H](OC(C)=O)[C@H](Sc2ccc3oc(=O)cc(C)c3c2)SC[C@H]1OC(C)=O [Example 10a, 4-methyl-2-oxo-2H-1-benzopyran-6-yl 2,3,4-tri-O-acetyl-1,5-dithio-β-D-xylopyranoside] here?
Answer: The inhibition in vivo at 3 mg/kg was 32%.

Question: For Cc1cc(=O)oc2c(S[C@@H]3SC[C@@H](O)[C@H](O)[C@H]3O)cccc12 [Example 9, 4-methyl-2-oxo-2H-1-benzopyran-8-yl 1,5-dithio-β-D-xylopyranoside], which inhibition in vivo at 3 mg/kg is on record?
Answer: The inhibition in vivo at 3 mg/kg was 31%.

Question: Which inhibition in vivo at 3 mg/kg does the source give for CCc1cc(=O)oc2cc(S[C@@H]3SC[C@@H](OC(C)=O)[C@H](OC(C)=O)[C@H]3OC(C)=O)ccc12 [Example 13a, 4-ethyl-2-oxo-2H-1-benzopyran-7-yl 2,3,4-tri-O-acetyl-1,5-dithio-β-D-xylopyranoside] here?
Answer: The inhibition in vivo at 3 mg/kg was 58%.

Question: With Cc1cc(=O)oc2cc(S[C@@H]3SC[C@@H](O)[C@H](O)[C@H]3O)ccc12 [Example 8, 4-methyl-2-oxo-2H-1-benzopyran-7-yl 1,5-dithio-β-D-xylopyranoside] as the compound, how does the inhibition in vivo at 3 mg/kg read?
Answer: The inhibition in vivo at 3 mg/kg was 46%.

Question: With CCc1cc(=O)c2ccc(O[C@@H]3SC[C@@H](O)[C@H](O)[C@H]3O)cc2o1 [Example 21, 2-ethyl-4-oxo-4H-1-benzopyran-7-yl 5-thio-β-D-xylopyranoside] as the compound, how does the inhibition in vivo at 3 mg/kg read?
Answer: The inhibition in vivo at 3 mg/kg was 70%.

Question: Which inhibition in vivo at 3 mg/kg does the source give for Cc1cc(=O)c2ccc(S[C@@H]3SC[C@@H](O)[C@H](O)[C@H]3O)cc2o1 [Example 23, 2-methyl-4-oxo-4H-1-benzopyran-7-yl 1,5-dithio-β-D-xylopyranoside] here?
Answer: Its inhibition in vivo at 3 mg/kg is 26%.

Question: With CCc1cc(=O)c2ccc(S[C@@H]3SC[C@@H](O)[C@H](O)[C@H]3O)cc2o1 [Example 27, 2-ethyl-4-oxo-4H-1-benzopyran-7-yl 1,5-dithio-β-D-xylopyranoside] as the compound, how does the inhibition in vivo at 3 mg/kg read?
Answer: The inhibition in vivo at 3 mg/kg was 26%.

Question: For CCc1cc(=O)c2ccc(S[C@@H]3SC[C@@H](OC(C)=O)[C@H](OC(C)=O)[C@H]3OC(C)=O)cc2o1 [Example 27a, 2-ethyl-4-oxo-4H-1-benzopyran-7-yl 2,3,4-tri-O-acetyl-1,5-dithio-β-D-xylopyranoside], which inhibition in vivo at 3 mg/kg is on record?
Answer: The inhibition in vivo at 3 mg/kg was 23%.

Question: For CC(=O)O[C@@H]1[C@@H](OC(C)=O)[C@H](Sc2ccc3c(C)c(Cl)c(=O)oc3c2)SC[C@H]1OC(C)=O [Example 12a, 3-chloro-4-methyl-2-oxo-2H-1-benzopyran-7-yl 2,3,4-tri-O-acetyl-1,5-dithio-β-D-xylopyranoside], which inhibition in vivo at 3 mg/kg is on record?
Answer: Its inhibition in vivo at 3 mg/kg is 32%.

Question: Which inhibition in vivo at 3 mg/kg does the source give for CCCc1cc(=O)oc2cc(O[C@@H]3SC[C@@H](O)[C@H](O)[C@H]3O)ccc12 [Example 5, 2-oxo-4-propyl-2H-1-benzopyran-7-yl 5-thio-β-D-xylopyranoside] here?
Answer: The inhibition in vivo at 3 mg/kg was 26%.

Question: Which inhibition in vivo at 3 mg/kg does the source give for Cc1cc(=O)oc2ccc(S[C@@H]3SC[C@@H](O)[C@H](O)[C@H]3O)cc12 [Example 10, 4-methyl-2-oxo-2H-1-benzopyran-6-yl 1,5-dithio-β-D-xylopyranoside] here?
Answer: Its inhibition in vivo at 3 mg/kg is 37%.

Question: With CC(=O)O[C@@H]1[C@@H](OC(C)=O)[C@H](OC(C)=O)CS[C@H]1Oc1ccc2c(C)c(-c3ccccc3)c(=O)oc2c1 [Example 18a, 4-methyl-2-oxo-3-phenyl-2H-1-benzopyran-7-yl 2,3,4-tri-O-acetyl-5-thio-β-D-xylopyranoside] as the compound, how does the inhibition in vivo at 3 mg/kg read?
Answer: Its inhibition in vivo at 3 mg/kg is 20%.

Question: With Cc1oc2cc(O[C@@H]3SC[C@@H](O)[C@H](O)[C@H]3O)ccc2c(=O)c1C [Example 22, 2,3-dimethyl-4-oxo-4H-1-benzopyran-7-yl 5-thio-β-D-xylopyranoside] as the compound, how does the inhibition in vivo at 3 mg/kg read?
Answer: Its inhibition in vivo at 3 mg/kg is 36%.

Question: For Cc1cc(=O)oc2cccc(S[C@@H]3SC[C@@H](O)[C@H](O)[C@H]3O)c12 [Example 7, 4-methyl-2-oxo-2H-1-benzopyran-5-yl 1,5-dithio-β-D-xylopyranoside], which inhibition in vivo at 3 mg/kg is on record?
Answer: Its inhibition in vivo at 3 mg/kg is 38%.

Question: With CC(=O)O[C@@H]1[C@@H](OC(C)=O)[C@H](OC(C)=O)CS[C@H]1Oc1ccc2c(=O)cc(C)oc2c1 [Example 20a, 2-methyl-4-oxo-4H-1-benzopyran-7-yl 2,3,4-tri-O-acetyl-5-thio-β-D-xylopyranoside] as the compound, how does the inhibition in vivo at 3 mg/kg read?
Answer: Its inhibition in vivo at 3 mg/kg is 20%.

Question: Which inhibition in vivo at 3 mg/kg does the source give for O=c1cc(C(F)(F)F)c2ccc(S[C@@H]3SC[C@@H](O)[C@H](O)[C@H]3O)cc2o1 [Example 11, 4-trifluoromethyl-2-oxo-2H-1-benzopyran-7-yl 1,5-dithio-β-D-xylopyranoside] here?
Answer: Its inhibition in vivo at 3 mg/kg is 36%.

Question: For CC(=O)O[C@@H]1[C@@H](OC(C)=O)[C@H](OC(C)=O)CS[C@H]1Oc1ccc2c(C)cc(=O)oc2c1 [Example 16a, 4-methyl-2-oxo-2H-1-benzopyran-7-yl 2,3,4-tri-O-acetyl-5-thio-β-D-xylopyranoside], which inhibition in vivo at 3 mg/kg is on record?
Answer: The inhibition in vivo at 3 mg/kg was 63%.

Question: Which inhibition in vivo at 3 mg/kg does the source give for O=c1cc(C(F)(F)F)c2ccc(O[C@@H]3SC[C@@H](O)[C@H](O)[C@H]3O)cc2o1 [Example 3, 4-trifluoromethyl-2-oxo-2H-1-benzopyran-7-yl 5-thio-β-D-xylopyranoside] here?
Answer: The inhibition in vivo at 3 mg/kg was 80%.

Question: Which inhibition in vivo at 3 mg/kg does the source give for CC(=O)O[C@@H]1[C@@H](OC(C)=O)[C@H](OC(C)=O)CS[C@H]1Oc1cccc2c(C)cc(=O)oc12 [Example 4a, 4-methyl-2-oxo-2H-1-benzopyran-8-yl 2,3,4-tri-O-acetyl-5-thio-β-D-xylopyranoside] here?
Answer: Its inhibition in vivo at 3 mg/kg is 51%.

Question: With Cc1oc2cc(O[C@@H]3SC[C@@H](O)[C@H](O)[C@H]3O)ccc2c(=O)c1Br [Example 28, 3-bromo-2-methyl-4-oxo-4H-1-benzopyran-7-yl 5-thio-β-D-xylopyranoside] as the compound, how does the inhibition in vivo at 3 mg/kg read?
Answer: Its inhibition in vivo at 3 mg/kg is 49%.

Question: For CC(C)c1cc(=O)oc2cc(O[C@@H]3SC[C@@H](O)[C@H](O)[C@H]3O)ccc12 [Example 19, 4-(1-methylethyl)-2-oxo-2H-1-benzopyran-7-yl 5-thio-β-D-xylopyranoside], which inhibition in vivo at 3 mg/kg is on record?
Answer: Its inhibition in vivo at 3 mg/kg is 36%.

Question: Which inhibition in vivo at 3 mg/kg does the source give for CC(=O)O[C@@H]1[C@@H](OC(C)=O)[C@H](OC(C)=O)CS[C@H]1Oc1ccc2c(=O)c(Br)c(C)oc2c1 [Example 28a, 3-bromo-2-methyl-4-oxo-4H-1-benzopyran-7-yl 2,3,4-tri-O-acetyl-5-thio-β-D-xylopyranoside] here?
Answer: Its inhibition in vivo at 3 mg/kg is 25%.

Question: Which inhibition in vivo at 3 mg/kg does the source give for Cc1cc(=O)oc2ccc(O[C@@H]3SC[C@@H](O)[C@H](O)[C@H]3O)cc12 [Example 2, 4-methyl-2-oxo-2H-1-benzopyran-6-yl 5-thio-β-D-xylopyranoside] here?
Answer: Its inhibition in vivo at 3 mg/kg is 81%.

Reference: US5169838A, “Benzopyranone-β-D-thioxylosides and their use in therapy” (Fournier Industrie et Sante, priority 1989, dated 1992)
